Experimental data as given in publication PMC12081876, “Identification of PTGR2 inhibitors as a new therapeutic strategy for diabetes and obesity” (EMBO Molecular Medicine, 2025).
Several values for one entry are separate records, joined by “and”; a condition that tells them apart may be missing. Equal values may be shown once.

Key:
mPPARγ-downstream genes = experiment: RT-qPCR of Glut4 and other mPPARγ-downstream genes in differentiated 3T3-L1 adipocytes; format: cell-based, mouse
Description: The cell lines, which were tested for mycoplasma contamination and authenticated, were purchased from the Bioresource Collection and Research Center, Taiwan. All cells were cultured at 37 °C, 5% CO2 in a humidified incubator. HEK293T cells were maintained in DMEM (cat. no. SH30003.02, HyClone) supplemented with 10% fetal bovine serum (FBS) (cat. no. 04-001-1A, Biological Industries) and 1% antibiotic/antimycotic solution (cat. no. SV30079.01, HyClone). 3T3-L1 preadipocytes were maintained at ~70% confluence in DMEM with 10% calf serum (cat. no. 16170078, Gibco) and 1% antibiotic/antimycotic solution. For adipocyte differentiation, confluent 3T3-L1 cells (defined as day 0) were exposed to an induction medium containing 10% FBS, 1 μM dexamethasone (cat. no. D4902, Sigma-Aldrich), and 1 μg/ml insulin (Humulin R, Eli Lilly) in DMEM with or without 0.5 mM isobutyl-methylxanthine (cat. no. sc-201188A, Santa Cruz Biotechnology) as indicated. After two days, the medium was replaced with DMEM containing 10% FBS and 1 μg/ml insulin and was replenished every two days until assay.
A total of 1 × 10^5 3T3-L1 preadipocytes were seeded in 6-well plates and differentiated for six days. The 3T3-L1 adipocytes were then harvested in 1 ml of REzol C&T (cat. no. PT-KP200CT, Protech), and total RNA was extracted according to the manufacturer’s instructions with slight modifications. Briefly, 200 μl of chloroform were added to 1 ml of sample in REzol, and samples were vigorously mixed by shaking for 30 s, followed by incubation at room temperature for 5 min. Then, samples were centrifuged at 12,000 × g for 15 min at 4 °C, and 400 μl of the upper aqueous phase were transferred to a new 1.5-ml tube. An equal volume of isopropanol was added. Samples were inverted several times for mixing and then centrifuged at 12,000 × g for 10 min at 4 °C. The RNA precipitate, which formed a pellet at the bottom of the 1.5-ml tube, was washed three times with 75% ethanol and air-dried for 15 min. Pellets were dissolved in RNase-free water. The concentration of RNA was measured using Nanodrop. cDNA was synthesized using a reverse transcription kit (cat. no. K1622, Thermo Scientific) using the oligo(dT)18 primers. RT-qPCR was performed in a 10-μl reaction with 50 ng cDNA and 0.2 μM primer using SYBR green reagent (cat. no. 11203ES08, YEASEN). Mouse peptidylprolyl isomerase A (Ppia) mRNA was used as the internal control. RT-qPCR reactions were performed using ABI 7900HT FAST (Applied Biosystems) and Sequence Detection Systems (SDS v2.3, Applied Biosystems). All qPCR reactions were run in duplicates. The primers used are listed in Appendix Table S3.

[1] = test system: PPARγ-null 3T3-L1 clones rescued with wild-type mPPARγ; experiment: Insulin-stimulated glucose uptake in PPARγ-null 3T3-L1 clones rescued with wild-type mPPARγ; format: cell-based, mouse; settings: for insulin-stimulated glucose uptake, Fig 1P left panel replicates: rescued with wild-type mPPARγ
Description: Gene editing was performed in 3T3-L1 preadipocytes using the clustered regularly interspaced short palindromic repeats (CRISPR)/Cas9 system. Two single-guide RNAs (sgRNA) (Appendix Table S5) targeting exon 6 of mouse Pparγ were designed using a web-based design tool (http://crispr.mit.edu/). These oligonucleotides were cloned into the pSurrogate reporter and pAll-Cas9.Ppuro vector obtained from Academia Sinica, Taiwan. The pSurrogate reporter contains an EGFP and an out-of-frame mCherry downstream of the sgRNA; the pAll-Cas9.Ppuro vector expresses Cas9 nuclease and sgRNA. Once a double-strand breaking at the target site in pSurrogate reporter plasmid was created by Cas9, insertions and deletions (indels) could be introduced at the cleaved site. The indels cause frameshifts and result in the expression of the mCherry gene. 3T3-L1 preadipocytes were co-transfected with pSurrogate reporter and pAll-Cas9.Ppuro vectors at 80-90% confluency using PolyJet™ transfection reagent (cat. no. SL100688, SignaGen Laboratories, USA). Two days after transfection, EGFP/mCherry double-positive cells were enriched by fluorescent-activated cell sorting. Single cells were isolated and expanded. The genomic DNA was amplified by PCR and sequenced to confirm the knockout cell lines. The primer sequences are shown in Appendix Table S5.
The mPPARγ C313A DNA sequence was amplified from pCMV6-Pparg C313A and subcloned into the pLVX-IRES-Neo vector with XhoI/NotI restriction sites. The lentiviral expression plasmids, pMD.G, and pCMVΔR8.91 (RNAi Core, Academia Sinica, Taiwan), were co-transfected into HEK293T cells. […] HSP70 was probed with an anti-HSP70 antibody (cat. no. ab45133, Abcam) as a loading control.
Differentiated 3T3-L1 cells were starved with serum-free DMEM containing 0.2% BSA (cat. no. A9647, Sigma-Aldrich). […] Uptake of 2DG was terminated by rapidly removing medium and washing with ice-cold PBS three times. Cells were lysed with 0.1% SDS, and the radioactivity was measured using a liquid scintillation counter. Insulin-mediated glucose uptake was calculated by subtracting insulin-treated glucose uptake with basal glucose uptake.

[2] = test system: HFHSD-fed obese C57BL6/J mice; experiment: Tissue weights (fat pads, liver, BAT); format: in vivo, mouse; set-up: Inguinal fat weight (Figure 5N): unit not given here
[3] = test system: HFHSD-fed obese C57BL6/J mice; experiment: Adipocyte size and number in perigonadal fat (H&E stain); format: in vivo, mouse; settings: vs vehicle
Text: Tissues were fixed in 4% paraformaldehyde and then embedded in paraffin before sectioning and staining. The stained sections were scanned and analyzed using a MIRAX viewer (http://www.zeiss.de/mirax) and Image J software (http://rsbwed.nih.gov/ij/).

[4] = Figure 2J, individual mice, listed as 15kPGE2, in g (unit assumed)
[5] = individual animals, in g (unit assumed)

CCCCCC(=O)CC[C@H]1[C@H](O)CC(=O)[C@@H]1C/C=C\CCCC(=O)O [13,14-dihydro-15-keto-PGE2]
Adipoq RT-qPCR, Fig 1I replicates (mPPARγ-downstream genes; 13,14dh-15kPGE2 10μM): 1.319 and 1.153 and 1.286 | Cepba RT-qPCR, Fig 1H replicates (mPPARγ-downstream genes; 13,14dh-15kPGE2 10μM): 1.374 and 0.7769 and 0.716 | Acs RT-qPCR, Fig 1G replicates (mPPARγ-downstream genes; 13,14dh-15kPGE2 10): 1.301 and 1.081 and 1.404 | Cd36 RT-qPCR, Fig 1F replicates (mPPARγ-downstream genes; 13,14dh-15kPGE2 10): 1.404 and 1.223 and 0.9692 | Glut4 RT-qPCR, Fig 1C replicates (mPPARγ-downstream genes; 13,14dh-15kPGE2 10): 1.898 and 2.106 and 1.673 | Irs2 RT-qPCR, Fig 1D replicates (mPPARγ-downstream genes; 13,14dh-15kPGE2 10): 0.9456 and 0.6593 and 0.5678 | Sorbs1 RT-qPCR, Fig 1E replicates (mPPARγ-downstream genes; 13,14dh-15kPGE2 10): 1.1258 and 0.882 and 0.8066 | insulin-stimulated glucose uptake, Fig 1P left panel replicates ([1]; 1314-dihydro-15kPGE2 5): 0.5765 and 0.8817 and 0.585 and 1.089

CCCCCC(=O)/C=C/[C@H]1[C@H](O)CC(=O)[C@@H]1C/C=C\CCCC(=O)O [15-keto-PGE2, 15-keto-prostaglandin E2]
Expression of Glut4 and other PPARγ-downstream genes (Irs2, Sorbs1, Cd36, Acs, Cebpa, Adipq) (mPPARγ-downstream genes; 3T3-L1 adipocytes): significantly increased | Adipoq RT-qPCR, Fig 1I replicates (mPPARγ-downstream genes; 15kPGE2 1μM): 1.0415 and 1.163 and 1.453 | Cepba RT-qPCR, Fig 1H replicates (mPPARγ-downstream genes; 15kPGE2 1μM): 1.584 and 1.855 and 1.4452 | Adipoq RT-qPCR, Fig 1I replicates (mPPARγ-downstream genes; 15kPGE2 5μM): 2.354 and 2.11 and 2.081 | Cepba RT-qPCR, Fig 1H replicates (mPPARγ-downstream genes; 15kPGE2 5μM): 1.743 and 1.998 and 2.055 | Adipoq RT-qPCR, Fig 1I replicates (mPPARγ-downstream genes; 15kPGE2 10μM): 2.022 and 2.345 and 2.444 | Cepba RT-qPCR, Fig 1H replicates (mPPARγ-downstream genes; 15kPGE2 10μM): 2.675 and 2.195 and 2.109 | Acs RT-qPCR, Fig 1G replicates (mPPARγ-downstream genes; 15kPGE2 1): 1.074 and 1.165 and 0.8587 | Cd36 RT-qPCR, Fig 1F replicates (mPPARγ-downstream genes; 15kPGE2 1): 1.042 and 1.096 and 0.9399 | Glut4 RT-qPCR, Fig 1C replicates (mPPARγ-downstream genes; 15kPGE2 1): 1.309 and 1.263 and 1.257 | Irs2 RT-qPCR, Fig 1D replicates (mPPARγ-downstream genes; 15kPGE2 1): 1.164 and 1.43 and 1.116 | Sorbs1 RT-qPCR, Fig 1E replicates (mPPARγ-downstream genes; 15kPGE2 1): 1.214 and 1.379 and 1.0658 | Acs RT-qPCR, Fig 1G replicates (mPPARγ-downstream genes; 15kPGE2 5): 1.251 and 1.575 and 1.53 | Cd36 RT-qPCR, Fig 1F replicates (mPPARγ-downstream genes; 15kPGE2 5): 1.448 and 1.619 and 1.287 | Glut4 RT-qPCR, Fig 1C replicates (mPPARγ-downstream genes; 15kPGE2 5): 2.797 and 2.997 and 3.11 | Irs2 RT-qPCR, Fig 1D replicates (mPPARγ-downstream genes; 15kPGE2 5): 1.3621 and 1.275 and 1.386 | Sorbs1 RT-qPCR, Fig 1E replicates (mPPARγ-downstream genes; 15kPGE2 5): 1.2593 and 1.694 and 1.702 | Acs RT-qPCR, Fig 1G replicates (mPPARγ-downstream genes; 15kPGE2 10): 2.4974 and 2.133 and 2.44 | Cd36 RT-qPCR, Fig 1F replicates (mPPARγ-downstream genes; 15kPGE2 10): 2.006 and 2.309 and 1.915 | Glut4 RT-qPCR, Fig 1C replicates (mPPARγ-downstream genes; 15kPGE2 10): 7.333 and 8.598 and 7.543 | Irs2 RT-qPCR, Fig 1D replicates (mPPARγ-downstream genes; 15kPGE2 10): 2.078 and 2.094 and 1.997 | Sorbs1 RT-qPCR, Fig 1E replicates (mPPARγ-downstream genes; 15kPGE2 10): 2.379 and 1.942 and 1.911 | insulin-stimulated glucose uptake, Fig 1P left panel replicates ([1]; 15kPGE2 1): 0.8065 and 0.6857 and 0.06677 and 0.8595 | insulin-stimulated glucose uptake, Fig 1P left panel replicates ([1]; 15kPGE2 5): 1.281 and 2.22 and 0.9527 and 1.646 | insulin-stimulated glucose uptake, Fig 1P left panel replicates ([1]; 15kPGE2 10): 2.206 and 2.06 and 1.8139 and 2.125 | insulin-stimulated glucose uptake, PPARγ-null clone rescued with wild-type mPPARγ ([1]; clone #1296): enhanced insulin-stimulated glucose uptake in clone # 1296 when rescued with wild-type mPPARγ | White fat mass ([2]; 40 mg/kg/day ip, 3 weeks, HFHSD-fed mice, vs vehicle): reduced | BAT weight [2, 4]: 0.1049 and 0.0893 and 0.0681 and 0.1024 and 0.0901 and 0.0904 and 0.0815 and 0.0934 and 0.1303 and 0.0871 and 0.1289 and 0.0981 and 0.1279 | gonadal fat weight [2, 4]: 1.0948 and 0.4418 and 0.5418 and 0.586 and 0.6631 and 0.6417 and 0.7873 and 0.8763 and 0.4217 and 0.3751 and 0.7101 and 0.437 and 1.2399 and 1.5271 | inguinal fa (inguinal fat weight) [2, 4]: 0.5361 and 0.3262 and 0.2899 and 0.5695 and 0.44 and 0.4775 and 0.4155 and 0.4527 and 0.3306 and 0.2941 and 0.47 and 0.5739 and 0.6454 and 0.6994 | liver weight [2, 4]: 1.4646 and 1.5001 and 1.364 and 1.198 and 1.291 and 1.4569 and 1.3602 and 1.5387 and 1.535 and 1.2853 and 1.4911 and 1.7319 and 1.4367 and 1.4078 | mesneteric fat weight [2, 4]: 0.4239 and 0.1584 and 0.1617 and 0.203 and 0.2549 and 0.1777 and 0.3522 and 0.3152 and 0.191 and 0.1812 and 0.1041 and 0.3498 and 0.3664 and 0.5006 | adipocyte size ([3]; 40 mg/kg/day ip): smaller | number of adipocytes ([3]; 40 mg/kg/day ip): no difference

Cc1[nH]c2nc(C(C)N3CCN(c4ccccc4)CC3)nn2c(=O)c1Cc1ccc(F)cc1 (centres unmarked) [BPRPT0245]
white fat mass and liver mass ([2]; 100 mg/kg/day oral, HFHSD-fed mice, vs vehicle): significantly reduced | Inguinal fat weight (Figure 5N) ([2]; individual animals): 3.1135 and 2.4997 and 3.7598 and 1.225 and 2.118 and 3.7874 and 2.0547 and 1.3489 and 2.0692 and 1.6337 | BAT weight (Figure 5N) [2, 5]: 0.1698 and 0.1291 and 0.2802 and 0.1132 and 0.1765 and 0.2813 and 0.0604 and 0.0923 and 0.1293 | Liver weight (Figure 5N) [2, 5]: 1.4298 and 1.1221 and 1.8053 and 1.0426 and 1.3688 and 2.9793 and 1.3504 and 1.1836 and 1.2693 and 1.0805 | Mesenteric fat weight (Figure 5N) [2, 5]: 1.0785 and 0.4119 and 1.0515 and 0.3617 and 0.4577 and 1.3111 and 0.5735 and 0.369 and 0.413 and 0.3561 | Perigonadal fat weight (Figure 5N) [2, 5]: 2.771 and 2.393 and 3.067 and 1.288 and 2.096 and 2.817 and 2.396 and 1.58 and 2.043 and 2.048 | adipocyte number ([3]; 100 mg/kg/day oral): not changed | adipocyte size ([3]; 100 mg/kg/day oral): reduced
